Reference: BigSolDB 2.1

Compound CCCc1nc2c(C)cc(-c3nc4ccccc4n3C)cc2n1Cc1ccc(-c2ccccc2C(=O)O)cc1 has a solubility (mole fraction) (in acetone, 278.55 K) of 4.42e-05, a solubility (mole fraction) (in acetone, 287.45 K) of 5.71e-05 and a solubility (mole fraction) (in acetone, 294.55 K) of 7.76e-05. The solubility (mole fraction) (in acetone, 303.85 K) was 9.45e-05, the solubility (mole fraction) (in acetone, 308.75 K) was 0.000112 and the solubility (mole fraction) (in acetone, 316.25 K) was 0.000141. For the same compound, the solubility (mole fraction) (in acetone, 325.75 K) was 0.000193, the solubility (mole fraction) (in benzene, 278.55 K) was 6.95e-05 and the solubility (mole fraction) (in benzene, 288.45 K) was 0.000111. It also gave a solubility (mole fraction) (in benzene, 299.85 K) of 0.000163, a solubility (mole fraction) (in benzene, 307.25 K) of 0.000236 and a solubility (mole fraction) (in benzene, 316.15 K) of 0.000289. It also gave a solubility (mole fraction) (in benzene, 324.35 K) of 0.000361, a solubility (mole fraction) (in benzene, 333.35 K) of 0.000488 and a solubility (mole fraction) (in chloroform, 278.75 K) of 0.00533. For the same compound, the solubility (mole fraction) (in chloroform, 289.45 K) was 0.00624, the solubility (mole fraction) (in chloroform, 296.95 K) was 0.00701 and the solubility (mole fraction) (in chloroform, 298.15 K) was 0.00725. It also gave a solubility (mole fraction) (in chloroform, 303.95 K) of 0.00747, a solubility (mole fraction) (in chloroform, 308.35 K) of 0.00771 and a solubility (mole fraction) (in chloroform, 313.15 K) of 0.00799. The solubility (mole fraction) (in dichloromethane, 278.35 K) was 0.0015, the solubility (mole fraction) (in dichloromethane, 286.55 K) was 0.00177 and the solubility (mole fraction) (in dichloromethane, 293.95 K) was 0.00205. For the same compound, the solubility (mole fraction) (in dichloromethane, 298.05 K) was 0.00216, the solubility (mole fraction) (in dichloromethane, 305.25 K) was 0.00246 and the solubility (mole fraction) (in dichloromethane, 308.35 K) was 0.00261. It also gave a solubility (mole fraction) (in dichloromethane, 311.75 K) of 0.00272, a solubility (mole fraction) (in ethanol, 277.85 K) of 3.06e-05 and a solubility (mole fraction) (in ethanol, 288.45 K) of 4.57e-05. The solubility (mole fraction) (in ethanol, 298.45 K) was 6.33e-05, the solubility (mole fraction) (in ethanol, 308.35 K) was 9e-05 and the solubility (mole fraction) (in ethanol, 313.45 K) was 0.000117. The solubility (mole fraction) (in ethanol, 329.75 K) was 0.000219, the solubility (mole fraction) (in ethanol, 333.65 K) was 0.000255 and the solubility (mole fraction) (in ethyl acetate, 283.65 K) was 2.47e-05. The solubility (mole fraction) (in ethyl acetate, 293.35 K) was 4.17e-05, the solubility (mole fraction) (in ethyl acetate, 303.65 K) was 5.9e-05 and the solubility (mole fraction) (in ethyl acetate, 305.35 K) was 6.26e-05. It also gave a solubility (mole fraction) (in ethyl acetate, 317.95 K) of 8.83e-05, a solubility (mole fraction) (in ethyl acetate, 329.45 K) of 0.000123 and a solubility (mole fraction) (in ethyl acetate, 333.65 K) of 0.000148. The solubility (mole fraction) (in isopropanol, 288.45 K) was 1.55e-05, the solubility (mole fraction) (in isopropanol, 298.05 K) was 2.77e-05 and the solubility (mole fraction) (in isopropanol, 309.55 K) was 4.1e-05. The solubility (mole fraction) (in isopropanol, 316.55 K) was 5.62e-05, the solubility (mole fraction) (in isopropanol, 321.55 K) was 7.41e-05 and the solubility (mole fraction) (in isopropanol, 329.55 K) was 0.000106. The solubility (mole fraction) (in isopropanol, 338.35 K) was 0.000157, the solubility (mole fraction) (in methanol, 278.45 K) was 6.03e-05 and the solubility (mole fraction) (in methanol, 288.55 K) was 8.9e-05. The solubility (mole fraction) (in methanol, 299.85 K) was 0.000132, the solubility (mole fraction) (in methanol, 307.35 K) was 0.000153 and the solubility (mole fraction) (in methanol, 313.25 K) was 0.000186. For the same compound, the solubility (mole fraction) (in methanol, 324.85 K) was 0.000271, the solubility (mole fraction) (in methanol, 330.05 K) was 0.000315 and the solubility (mole fraction) (in toluene, 278.65 K) was 3.55e-05. For the same compound, the solubility (mole fraction) (in toluene, 288.45 K) was 6.08e-05, the solubility (mole fraction) (in toluene, 300.05 K) was 8.4e-05 and the solubility (mole fraction) (in toluene, 306.35 K) was 0.000125. For the same compound, the solubility (mole fraction) (in toluene, 316.75 K) was 0.000169, the solubility (mole fraction) (in toluene, 325.85 K) was 0.000225 and the solubility (mole fraction) (in toluene, 334.55 K) was 0.000307.
